From patent US11213533B2, “Combinations comprising dibromopropamidine or diminazene and a tetracycline anti-bacterial agent” (UNION therapeutics A/S, priority 2016, dated 2022)
Where a name gives a salt, the structure may show the parent alone. Read-outs that look alike come from different tables or passages of the source.

Key:
[1] = test system: E. Coli; test: Checkerboard MIC / synergy determination (FIC, CI) against E. coli; assay type: cell-based, Escherichia coli; conditions: for MIC tetracycline (μg/ml) (combination): MIC of the tetracycline antibiotic in combination with diminazene; for CI value: combination of the tetracycline antibiotic with diminazene, CI < 1 = synergy; for FIC tetracycline compound: in combination with diminazene; for MIC: Escherichia coli
[2] = test system: Pseudomonas aeruginosa (X11045); test: Checkerboard MIC / synergy determination (FIC, CI) against Pseudomonas aeruginosa; assay type: cell-based; conditions: for MIC tetracycline (μg/ml) (combination) / CI value / synergy with diminazene (in words) / FIC tetracycline compound / FIC tetracycline / MIC tetracycline / MIC tetracycline compound / MIC / MIC dibromopropamidine (μg/ml) (combination) / FIC dibromopropamidine / MIC diminazene (μg/ml) (combination): P. aeruginosa; for CI value: CI < 1 = synergy; for synergy with diminazene (in words): combination with diminazene, Table 2; for FIC tetracycline compound: in combination with dibromopropamidine; for FIC tetracycline: in combination with diminazene; for synergy with dibromopropamidine (in words): combination with dibromopropamidine, inhibition of P. aeruginosa, Table 3; for MIC: Pseudomonas aeruginosa
Experimental: In microbiology, minimum inhibitory concentration (MIC) is the lowest concentration of an antibacterial that will inhibit the visible growth of a microorganism after overnight incubation. Minimum inhibitory concentrations are important in diagnostic laboratories to confirm resistance of microorganisms to an antimicrobial agent and also to monitor the activity of new antimicrobial agents. The MIC can be determined using standard methods, for example as described in Andrews, J. Antimicrobial Chemotherapy, 48, 2001, Suppl. S1, 5-16. Typically, MIC is determined using 96-well plates, and serial two-fold dilutions of the antibacterial agent in a culture medium containing the bacteria with an approximate concentration of 10^3 cells per well. Plates are incubated at 37° C. for 18 to 24 hours. Optical density, at a wavelength of 600 nm, is then measured at the start and at the end of the incubation period. Inhibition in a particular well is calculated as (Inhibition=1−ODtest/ODno treatment). The MIC value is the minimum concentration of antibacterial agent which gives 100% inhibition. Experiments are generally performed at least as triplicate biological replicates.
The CI is measured by first calculating the fractional inhibitory concentration (FIC) of the individual actives (e.g. “compound A” or “compound B”) in a combination product against a certain bacterial strain. This is calculated by dividing the minimum inhibitory concentration (MIC) of the active in a combination product by the minimum inhibitory concentration of the active alone.
The Combination Index (CI) is calculated by adding the FIC of the two actives together. CI value=FICCompound A+FICCompound B
A CI value of 1 means the combined effect of the two agents is additive. A CI value of less than 1 means that the two agents act synergistically. It is therefore understood that the lower the CI value, the better the synergistic effect of the combination product. For a drug combination to show synergistic effects, the CI value will typically be less than 1.
This study was conducted with the following strains: Pseudomonas aeruginosa (X11045). P. aeruginosa (X11045) was received form Statens Serum Institute.
The bacteria from cryopreserved stocks were grown on LB agar plates [G. Bertani, “Studies on lysogenesis. I. The mode of phage liberation by lysogenic Escherichia coli,” J. Bacteriol., vol. 62, no. 3, pp. 293-300, September 1951] and incubated overnight at 37° C.
One colony was transferred into 15 ml of cation-adjust Mueller Hinton broth (MH2) [J. H. Mueller and J. Hinton, “A Protein-Free Medium for Primary Isolation of the Gonococcus and Meningococcus,” Exp. Biol. Med., vol. 48, no. 1, pp. 330-333, October 1941] and incubated overnight at 37° C. shaken at 200 rpm.
Checkerboard Methods of Antimicrobial Combinations Synergy Determination • 1. Day 1. • Bacterial strains are isolated on agar plates and incubated overnight at 37° C. Pseudomonas aeruginosa (X11045) on LB agar. • 2. Day 2. • For each strain, one colony is transferred into 15 ml of Mueller Hinton broth (MHB) and incubated overnight at 37° C. shaken at 200 rpm. • 3. Day 3. • Fifty microliters of the O/N culture are inoculated to 5 ml of Mueller Hinton broth in 15 ml conical tubes and incubated for 5 hours at 37° C. shaken at 200 rpm. • 4. Dispense 150 μl of MHB in each well of the 12th column for positive and negative controls as shown above. • 5. Prepare each drug to Cmax×2 • a. Diminazene/Dibromopropamidine: • Make a series of 2-fold dilution as shown in the plate layout. Using the 12 channel pipet, dispense 75 μl of diminazene solution in each well so that the final volume will be 150 μl and the final concentration is as shown in the plate schematic above. • b. Tetracycline antibiotics: • Make a series of 2-fold dilution as shown in the plate layout. […]

[3] = cited from earlier work
[4] = MIC of the tetracycline antibiotic in combination with dibromopropamidine
[5] = MIC of the tetracycline antibiotic in combination with diminazene, OD600 after 18 hours
[6] = combination of the tetracycline antibiotic with dibromopropamidine
[7] = combination of the tetracycline antibiotic with diminazene
[8] = tetracycline antibiotic alone, Table 2 (diminazene series)
[9] = tetracycline antibiotic alone, Table 3 (dibromopropamidine series)
[10] = in combination with doxycycline hyclate
[11] = in combination with minocycline hydrochloride
[12] = in combination with tetracycline hydrochloride
[13] = in combination with tigecycline hydrate
[14] = diminazene alone, read-out: MIC diminazene
[15] = diminazene in combination with doxycycline hyclate
[16] = diminazene in combination with minocycline hydrochloride
[17] = diminazene in combination with tetracycline hydrochloride

| Compound | MIC tetracycline (μg/ml) (combination) [1] [µg/mL] | CI value [1] | FIC tetracycline compound [1] | MIC tetracycline compound ([1]; tetracycline antibiotic alone) [µg/mL] | MIC tetracycline (μg/ml) (combination) [2, 4] [µg/mL] | MIC tetracycline (μg/ml) (combination) [2, 5] [µg/mL] | CI value [2, 6] | CI value [2, 7] | synergy with diminazene (in words) [2] | FIC tetracycline compound [2] | FIC tetracycline [2] | MIC tetracycline compound [2, 9] [µg/mL] | Protein binding (%) [3] | other results |
| --- | --- | --- | --- | --- | --- | --- | --- | --- | --- | --- | --- | --- | --- | --- |
| C[C@H]1c2cccc(O)c2C(=O)C2=C(O)[C@]3(O)C(=O)C(C(N)=O)=C(O)[C@@H](N(C)C)[C@@H]3[C@@H](O)[C@@H]21 [Doxycycline hyclate] | 0.25 | 0.56 | 0.50 | 0.50 | 0.50 | 3.13 | 0.28 | 0.25 | strong synergy | 0.03 | 0.13 | 16.00 | 85% | MIC tetracycline [2, 8]: 25.00 µg/mL |
| CN(C)c1ccc(O)c2c1C[C@H]1C[C@H]3[C@H](N(C)C)C(O)=C(C(N)=O)C(=O)[C@@]3(O)C(O)=C1C2=O.Cl [Minocycline hydrochloride] | 0.13 | 0.50 | 0.25 | 0.50 | 0.50 | 3.13 | 0.28 | 0.25 | strong synergy | 0.03 | 0.13 | 16.00 | 66% | synergy with dibromopropamidine (in words) [2]: Especially strong synergy; MIC tetracycline [2, 8]: 25.00 µg/mL |
| CN(C)[C@@H]1C(O)=C(C(N)=O)C(=O)[C@@]2(O)C(O)=C3C(=O)c4c(O)cccc4[C@@](C)(O)[C@H]3C[C@@H]12.Cl [Tetracycline hydrochloride] | 0.50 | 2.00 | 1.00 |  | 2.00 | 4.00 | 0.63 | 0.50 | strong synergy | 0.13 | 0.25 |  |  | MIC ([1]; 18 h, tetracycline antibiotic alone, read-out: MIC tetracycline compound): 0.5 µg/mL; MIC ([2]; 18 h, tetracycline antibiotic alone, Table 2 (diminazene series), read-out: MIC tetracycline): 16 µg/mL; MIC ([2]; 18 h, tetracycline antibiotic alone, Table 3 (dibromopropamidine series), read-out: MIC tetracycline compound): 16 µg/mL |
| CN(C)c1cc(NC(=O)CNC(C)(C)C)c(O)c2c1C[C@H]1C[C@H]3[C@H](N(C)C)C(O)=C(C(N)=O)C(=O)[C@@]3(O)C(O)=C1C2=O [Tigecycline hydrate] | 0.25 | 0.38 | 0.25 | 1.00 | 0.50 |  | 0.52 |  |  | 0.02 |  | 32.0 | 80% | synergy with diminazene (in words) ([1]; combination with diminazene, Table 4): particularly good synergy |
| N=C(N)c1ccc(OCCCOc2ccc(C(=N)N)cc2Br)c(Br)c1 [dibromopropamidine, Dibromopropamidine dihydrochloride] |  |  |  |  |  |  |  |  |  |  |  |  |  | MIC ([2]; dibromopropamidine alone, read-out: MIC dibromopropamidine): 10 µg/mL; MIC dibromopropamidine (μg/ml) (combination) ([2]; dibromopropamidine in combination with doxycycline hyclate): 2.50 µg/mL; MIC dibromopropamidine (μg/ml) (combination) ([2]; dibromopropamidine in combination with minocycline hydrochloride): 2.50 µg/mL; MIC dibromopropamidine (μg/ml) (combination) ([2]; dibromopropamidine in combination with tetracycline hydrochloride): 5.00 µg/mL; MIC dibromopropamidine (μg/ml) (combination) ([2]; dibromopropamidine in combination with tigecycline hydrate): 5.00 µg/mL; FIC dibromopropamidine [2, 10]: 0.25; FIC dibromopropamidine [2, 11]: 0.25; FIC dibromopropamidine [2, 12]: 0.50; FIC dibromopropamidine [2, 13]: 0.50 |
| N=C(N)c1ccc(/N=N/Nc2ccc(C(=N)N)cc2)cc1 [diminazene, Diminazene aceturate] |  |  |  |  |  |  |  |  |  |  |  |  | 65-85% | MIC [1, 14]: 20 µg/mL; MIC diminazene (μg/ml) (combination) [1, 15]: 1.25 µg/mL; MIC diminazene (μg/ml) (combination) [1, 16]: 5.00 µg/mL; MIC diminazene (μg/ml) (combination) [1, 17]: 20.00 µg/mL; MIC diminazene (μg/ml) (combination) ([1]; diminazene in combination with tigecycline hydrate): 2.50 µg/mL; FIC diminazene [1, 10]: 0.06; FIC diminazene [1, 11]: 0.25; FIC diminazene [1, 12]: 1.00; FIC diminazene [1, 13]: 0.13; MIC [2, 14]: 250 µg/mL; FIC dibromopropamidine ([2]; Table 2 (diminazene table), in combination with doxycycline hyclate): 0.13; FIC dibromopropamidine ([2]; Table 2 (diminazene table), in combination with minocycline hydrochloride): 0.13; FIC dibromopropamidine ([2]; Table 2 (diminazene table), in combination with tetracycline hydrochloride): 0.25; MIC diminazene (μg/ml) (combination) [2, 15]: 31.25 µg/mL; MIC diminazene (μg/ml) (combination) [2, 16]: 31.25 µg/mL; MIC diminazene (μg/ml) (combination) [2, 17]: 62.50 µg/mL |
| Doxycycline hyclate |  |  |  |  |  |  |  |  |  |  |  |  |  | synergy with dibromopropamidine (in words) [2]: Especially strong synergy |
